# Reference: patent US6926763B2, “Purine and isosteric antibacterial compounds” (GLSynthesis, Inc., priority 2002, dated 2005)
# Read-outs that look alike come from different tables or passages of the source.
# Tests used:
# Enterococcus fecium = test: Inhibition of bacterial growth (agar plate MIC), E. fecium; type: cell-based; details: agar plates, 37° C., 24 hours; for MIC: Enterococcus
# Procedure: (§1) Antimicrobial efficacy may be determined by standard methods of microbial culture in growth medium or on plates of agar supplemented with appropriate growth media. For example, microbes, e.g., mycoplasmata or Gram-positive or Gram-negative bacteria, are grown in the presence of serial dilutions of compounds in an appropriate vehicle, and, after a suitable period of growth, the microbial density is measured by visual or instrumental means. The concentration of compound at which no growth occurs is the minimum inhibitory concentration (MIC) of the compound. Test compounds with an appropriate level of growth inhibition are good candidate therapeutics for further evaluation.
# (§2) Each compound was assayed against a panel of Gram-positive Bacilli, Enterococci, and Staphylococci, and Gram-negative Escherichia coli, grown in appropriate plate media solidified with 1.3% agar-agar. […] One tenth mL of diluted bacteria containing 500-1000 colony-forming units (CFU) were plated and spread, and the plates were incubated at 37° C. for 24 hours. MIC (minimum inhibitory concentration) was equivalent to the lowest concentration at which growth, i.e. colony formation, was not observed.
# Bacillus subtilis = test: Inhibition of bacterial growth (agar plate MIC), B.s.; type: cell-based; details: agar plates, 37° C., 24 hours; for MIC: Bacillus subtilis
# Procedure: as §1, §2
# S.a. (Smith) = test: Inhibition of bacterial growth (agar plate MIC), S.a. (Smith); type: cell-based, Staphylococcus aureus; details: agar plates, 37° C., 24 hours; for MIC: Staphylococcus aureus
# Procedure: as §1, §2
# Enterococcus fecalis = test: Inhibition of bacterial growth (agar plate MIC), E. fecalis; type: cell-based; details: agar plates, 37° C., 24 hours; for MIC: Enterococcus
# Procedure: as §1, §2
# Staphylococcus aureus = test: Inhibition of bacterial growth (agar plate MIC), S.a.; type: cell-based; details: agar plates, 37° C., 24 hours; for MIC: Staphylococcus aureus
# Procedure: as §1, §2
# B.s. pol IIIC = B.s. pol IIIC (Bacillus subtilis, UniProt P13267); test: biochemical; type: biochemical
# Chain of B.s. pol IIIC (P13267 whole entry): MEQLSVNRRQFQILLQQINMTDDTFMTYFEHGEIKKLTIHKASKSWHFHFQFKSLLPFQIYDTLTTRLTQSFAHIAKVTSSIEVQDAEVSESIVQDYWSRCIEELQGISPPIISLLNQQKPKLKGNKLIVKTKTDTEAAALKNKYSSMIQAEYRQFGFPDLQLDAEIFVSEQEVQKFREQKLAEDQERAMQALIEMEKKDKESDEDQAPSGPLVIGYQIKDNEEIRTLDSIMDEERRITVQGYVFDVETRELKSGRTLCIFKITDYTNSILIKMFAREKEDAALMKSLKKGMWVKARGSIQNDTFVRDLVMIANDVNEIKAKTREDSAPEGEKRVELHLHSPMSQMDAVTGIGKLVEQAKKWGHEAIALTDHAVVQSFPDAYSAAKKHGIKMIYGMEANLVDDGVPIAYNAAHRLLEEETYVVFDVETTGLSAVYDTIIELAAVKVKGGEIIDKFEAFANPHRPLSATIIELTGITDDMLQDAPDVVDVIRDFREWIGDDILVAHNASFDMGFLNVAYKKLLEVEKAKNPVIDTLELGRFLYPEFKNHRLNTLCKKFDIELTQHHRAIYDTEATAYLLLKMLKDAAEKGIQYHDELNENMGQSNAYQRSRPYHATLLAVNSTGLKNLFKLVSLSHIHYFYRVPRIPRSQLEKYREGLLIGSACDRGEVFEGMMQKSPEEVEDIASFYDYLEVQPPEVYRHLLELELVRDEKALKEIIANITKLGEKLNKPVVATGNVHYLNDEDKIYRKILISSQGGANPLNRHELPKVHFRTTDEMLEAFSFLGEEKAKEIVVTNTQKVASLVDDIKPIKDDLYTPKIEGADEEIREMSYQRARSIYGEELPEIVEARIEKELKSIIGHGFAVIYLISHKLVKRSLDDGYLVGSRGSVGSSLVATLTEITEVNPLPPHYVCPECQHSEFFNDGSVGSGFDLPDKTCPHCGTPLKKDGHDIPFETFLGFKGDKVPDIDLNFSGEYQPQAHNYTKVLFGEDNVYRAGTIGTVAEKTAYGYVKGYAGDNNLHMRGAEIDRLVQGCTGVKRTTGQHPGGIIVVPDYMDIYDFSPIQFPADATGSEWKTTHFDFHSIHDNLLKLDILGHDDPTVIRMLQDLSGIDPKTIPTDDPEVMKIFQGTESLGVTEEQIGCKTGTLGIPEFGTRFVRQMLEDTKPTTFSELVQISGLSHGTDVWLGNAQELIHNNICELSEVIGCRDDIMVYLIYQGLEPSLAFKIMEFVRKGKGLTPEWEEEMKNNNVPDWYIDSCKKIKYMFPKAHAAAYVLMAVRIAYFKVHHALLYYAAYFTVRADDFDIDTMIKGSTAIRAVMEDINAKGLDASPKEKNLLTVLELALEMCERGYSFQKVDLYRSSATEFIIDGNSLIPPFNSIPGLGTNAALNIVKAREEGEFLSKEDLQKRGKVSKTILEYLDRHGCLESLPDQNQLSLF
# Procedure: (§3) The ability of a test compound to inhibit the activity of DNA pol IIIC or pol IIIE enzymes can be tested by using a DNA polymerase assay as described, for example, in Barnes and Brown, Nucl. […] This rapid screening method can use natural or recombinant DNA pol III enzymes in a standard DNA polymerase activity assay. By including a test compound in a side-by-side assay with a control, the effect of the test compound on polymerase activity can be assessed.
# (§4) DNA pol III activity was assayed as described in Barnes et al., Nucl.
# (§5) Purified pol IIIC or pol IIIE was added to a buffered solution containing Mg^2+, DTT, glycerol, nicked calf thymus DNA, saturating concentrations of dATP, dCTP, dTTP and [^3H]-dTTP. Reaction mixtures were incubated at 30° C. for 10 min, quenched and filtered, and radioactivity in the acid-insoluble material measured by scintillation counting. Experiments were done in triplicate. Inhibitors were assayed by addition of several dilutions of a stock solution of inhibitor (DMSO or water, depending on solubility) before enzyme addition. […] The truncated assay, i.e., exclusion of the competitive substrate dGTP allows for the direct determination of apparent inhibitor constants (Ki) in this assay system.
# [1] = system: vancomycin-resistant E. fecium; test: Inhibition of bacterial growth (agar plate MIC), VRE; type: cell-based, Enterococcus fecium; details: agar plates, 37° C., 24 hours; for MIC: Enterococcus, VRE
# Procedure: as §1, §2
# MRSA (B42876) = test: Inhibition of bacterial growth (agar plate MIC), MRSA (B42876); type: cell-based, methicillin-resistant S.a.; details: agar plates, 37° C., 24 hours; for MIC: Staphylococcus aureus, MRSA
# Procedure: as §1, §2
# E.c. pol IIIE = E.c. pol IIIE (Escherichia coli, UniProt P10443); test: biochemical
# Chain of E.c. pol IIIE (P10443 whole entry): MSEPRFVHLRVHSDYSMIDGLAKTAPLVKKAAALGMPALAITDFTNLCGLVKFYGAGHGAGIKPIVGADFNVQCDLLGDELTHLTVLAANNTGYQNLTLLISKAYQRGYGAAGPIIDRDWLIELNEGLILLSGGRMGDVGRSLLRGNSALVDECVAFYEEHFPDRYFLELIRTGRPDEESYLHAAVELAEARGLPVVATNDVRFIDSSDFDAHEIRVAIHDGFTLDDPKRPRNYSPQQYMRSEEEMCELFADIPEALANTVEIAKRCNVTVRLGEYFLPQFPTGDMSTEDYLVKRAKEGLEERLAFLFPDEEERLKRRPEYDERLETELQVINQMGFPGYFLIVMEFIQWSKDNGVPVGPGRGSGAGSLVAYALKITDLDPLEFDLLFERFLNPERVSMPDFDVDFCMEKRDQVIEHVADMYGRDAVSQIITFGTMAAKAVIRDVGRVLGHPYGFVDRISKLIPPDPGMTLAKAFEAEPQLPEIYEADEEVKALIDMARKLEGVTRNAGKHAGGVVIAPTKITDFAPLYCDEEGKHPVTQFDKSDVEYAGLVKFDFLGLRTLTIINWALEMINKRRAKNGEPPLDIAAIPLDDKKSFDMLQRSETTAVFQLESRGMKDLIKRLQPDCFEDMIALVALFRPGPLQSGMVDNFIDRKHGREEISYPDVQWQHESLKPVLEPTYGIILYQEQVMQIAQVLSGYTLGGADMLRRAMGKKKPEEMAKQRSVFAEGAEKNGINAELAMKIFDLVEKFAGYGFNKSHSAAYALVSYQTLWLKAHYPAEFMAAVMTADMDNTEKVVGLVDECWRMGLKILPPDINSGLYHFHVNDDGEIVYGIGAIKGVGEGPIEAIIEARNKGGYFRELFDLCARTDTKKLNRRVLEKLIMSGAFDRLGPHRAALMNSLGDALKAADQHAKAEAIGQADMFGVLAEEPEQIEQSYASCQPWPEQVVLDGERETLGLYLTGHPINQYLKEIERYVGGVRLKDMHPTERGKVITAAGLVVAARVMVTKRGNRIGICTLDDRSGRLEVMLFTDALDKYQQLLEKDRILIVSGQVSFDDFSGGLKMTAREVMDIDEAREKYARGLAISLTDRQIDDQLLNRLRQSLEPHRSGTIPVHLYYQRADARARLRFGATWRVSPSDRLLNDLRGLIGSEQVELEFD
# Procedure: as §3, §4, §5
# B.s. pol IIIE = B.s. pol IIIE (Bacillus subtilis, UniProt O34623); test: biochemical; type: biochemical
# Chain of B.s. pol IIIE (O34623 whole entry): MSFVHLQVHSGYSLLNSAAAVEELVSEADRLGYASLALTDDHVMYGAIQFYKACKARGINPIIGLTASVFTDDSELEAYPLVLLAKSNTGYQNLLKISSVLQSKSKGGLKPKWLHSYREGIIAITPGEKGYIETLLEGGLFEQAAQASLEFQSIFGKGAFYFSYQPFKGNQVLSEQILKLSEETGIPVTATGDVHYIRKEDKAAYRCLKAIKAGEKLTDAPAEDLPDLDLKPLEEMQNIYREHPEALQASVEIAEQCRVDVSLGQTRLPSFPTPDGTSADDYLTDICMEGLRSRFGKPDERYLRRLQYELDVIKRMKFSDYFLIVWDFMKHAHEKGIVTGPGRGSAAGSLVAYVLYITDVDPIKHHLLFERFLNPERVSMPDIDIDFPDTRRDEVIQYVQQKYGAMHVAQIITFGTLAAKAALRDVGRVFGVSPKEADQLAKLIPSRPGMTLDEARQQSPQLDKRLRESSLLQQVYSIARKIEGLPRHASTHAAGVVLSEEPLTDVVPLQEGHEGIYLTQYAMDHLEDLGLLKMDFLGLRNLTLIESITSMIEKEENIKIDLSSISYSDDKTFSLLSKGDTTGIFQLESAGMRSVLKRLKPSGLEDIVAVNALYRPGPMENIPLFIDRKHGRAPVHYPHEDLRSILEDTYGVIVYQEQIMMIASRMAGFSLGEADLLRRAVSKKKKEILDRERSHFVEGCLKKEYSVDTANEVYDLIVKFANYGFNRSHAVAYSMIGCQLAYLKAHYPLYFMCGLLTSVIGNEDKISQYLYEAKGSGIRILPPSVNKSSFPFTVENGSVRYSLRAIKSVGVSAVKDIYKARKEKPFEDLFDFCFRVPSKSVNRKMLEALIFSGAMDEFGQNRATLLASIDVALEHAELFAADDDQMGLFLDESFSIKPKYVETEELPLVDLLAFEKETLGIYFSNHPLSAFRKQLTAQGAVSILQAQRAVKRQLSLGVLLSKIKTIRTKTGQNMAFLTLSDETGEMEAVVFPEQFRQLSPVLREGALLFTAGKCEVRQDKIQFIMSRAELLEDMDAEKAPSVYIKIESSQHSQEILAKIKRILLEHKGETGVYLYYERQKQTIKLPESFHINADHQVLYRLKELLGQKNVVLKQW
# Procedure: as §3, §4, §5
# in vitro = in vitro ADME; details: human, Caco-2
# Source text: Table 2 summarizes the results of cell membrane permeability assays of representative compounds of the invention. The assay utilizes CaCo2 cell culture monolayers, described by Artursson and Kalsson, Biochem. Biophys. Res.
# [2] = truncated assay without dGTP, apparent Ki, read-out: Ki, B.s. pol IIIC
# [3] = truncated assay without dGTP, apparent Ki, read-out: Ki, B.s. pol IIIE
# [4] = truncated assay without dGTP, apparent Ki
SMILES,MIC (Enterococcus fecium) [µg/mL],MIC (Bacillus subtilis) [µg/mL],MIC (S.a. (Smith)) [µg/mL],MIC (Enterococcus fecalis) [µg/mL],MIC (Staphylococcus aureus) [µg/mL],Ki (B.s. pol IIIC; [2]) [nM],MIC (MRSA (B42876)) [µg/mL],Papp (in vitro) [×10⁻⁶ cm/s],also measured
"CC(=O)OCCCCn1cnc2nc(NCc3ccc(Cl)c(Cl)c3)[nH]c(=O)c21 [Compound 7, 7-(4-Acetoxybutyl)-2-(3,4-dichlorobenzylamino)-6-oxopurine]",2.5,5,2.5,2.5,5,66,2.5,–,MIC [1]: 5 µg/mL
"O=c1[nH]c(NCc2ccc(Cl)c(Cl)c2)cc2[nH]cnc12 [Compound 1, 2-(3,4-Dichlorobenzylamino)-6-oxo-3-deazapurine]",–,–,–,–,–,2200,–,–,"MIC, E. fecium (Enterococcus fecium): 40 µg/mL; MIC, B.s. (Bacillus subtilis): 40 µg/mL; Ki (E.c. pol IIIE; truncated assay without dGTP, apparent Ki, read-out: Ki, E.c. pol IIIE): 176000 nM; MIC, S.a. (Smith) (S.a. (Smith)): 80 µg/mL; MIC, E. fecalis (Enterococcus fecalis): 80 µg/mL; MIC, S.a. (Staphylococcus aureus): 80 µg/mL; Ki (B.s. pol IIIE; [3]): 2500 nM; MIC, VRE [1]: 40 µg/mL; MIC, MRSA (B42876) (MRSA (B42876)): 80 µg/mL"
"O=c1[nH]c(NCc2ccc(Cl)c(Cl)c2)nc2ncn(CCCCCO)c12 [Compound 12, 7-(5-Hydroxypentyl)-2-(3,4-dichlorobenzylamino)-6-oxopurine]",10,–,–,5,20,52,–,–,–
"O=c1[nH]c(NCc2ccc(Cl)c(Cl)c2)cc2ncn(CCCCCN3CCOCC3)c12 [Compound 5, 2-(3,4-Dichlorobenzylamino)-6-oxo-7-(5-morpholinylpentyl)-3-deazapurine]",–,–,–,–,–,100,–,–,"MIC, E. fecium (Enterococcus fecium): 20 µg/mL; MIC, B.s. (Bacillus subtilis): 10 µg/mL; MIC, S.a. (Smith) (S.a. (Smith)): 20 µg/mL; MIC, E. fecalis (Enterococcus fecalis): 20 µg/mL; MIC, S.a. (Staphylococcus aureus): 20 µg/mL; Ki (B.s. pol IIIE; [3]): 290 nM; MIC, VRE [1]: 15 µg/mL; MIC, MRSA (B42876) (MRSA (B42876)): 20 µg/mL"
"COCCCCn1c(C)nc2cc(NCc3ccc(Cl)c(Cl)c3)[nH]c(=O)c21 [Compound 6, 2-(3,4-Dichlorobenzylamino)-6-oxo-7-(4-methoxybutyl)-8-methyl-3-deazapurine]",10,2.5,7.5,10,10,–,7.5,–,Ki (E.c. pol IIIE): 426000 nM; Ki (B.s. pol IIIE): 2500 nM; Ki (B.s. pol IIIC): 1250 nM; MIC [1]: 10 µg/mL
"CC(C)NCC(O)COc1cccc2ccccc12 (centres unmarked) [Propranolol, reference compound]",–,–,–,–,–,–,–,19.3,–
"CCc1cc(Nc2nc3ncn(CCCCO)c3c(=O)[nH]2)ccc1C [Compound 18, 7-(4-Hydroxybutyl)-2-(3-ethyl-4-methylphenylamino)-6-oxopurine]",20,15,40,20,–,470,30,0.56,"Ki, B.s. pol IIIE (B.s. pol IIIE; [4]): inact"
"CCc1cc(Nc2nc3ncn(CCCCCN4CCC(O)(c5ccc(Cl)c(C(F)(F)F)c5)CC4)c3c(=O)[nH]2)ccc1C [Compound 23, 7-{5-[4-hydroxy-4-(3-trifluoromethyl-4-chlorophenyl)piperidyl]pentyl}-2-(3-ethyl-4-methylphenylamino)-6-oxopurine]",–,–,–,–,–,130,–,–,"MIC, E. fecium (Enterococcus fecium): 5 µg/mL; MIC, B.s. (Bacillus subtilis): 2.5 µg/mL; MIC, S.a. (Smith) (S.a. (Smith)): 5 µg/mL; MIC, E. fecalis (Enterococcus fecalis): 5 µg/mL; MIC, S.a. (Staphylococcus aureus): 5 µg/mL; Ki (B.s. pol IIIE; [3]): 38000 nM; MIC, VRE [1]: 5 µg/mL; MIC, MRSA (B42876) (MRSA (B42876)): 5 µg/mL"
"CCc1cc(Nc2cc3ncn(CCCCOC)c3c(=O)[nH]2)ccc1C [Compound 15, 2-(3-Ethyl-4-methylphenylamino)-6-oxo-7-(4-methoxybutyl)-3-deazapurine]",10,2.5,–,10,–,–,10,–,"Ki, B.s. pol IIIE (B.s. pol IIIE; [4]): inact; Ki (B.s. pol IIIC): 1500 nM"
"O=c1[nH]c(NCc2ccc(Cl)c(Cl)c2)nc2ncn(CCCCO)c12 [Compound 8, 7-(4-Hydroxybutyl)-2-(3,4-dichlorobenzylamino)-6-oxopurine]",7.5,15,25,10,–,190,30,–,–
"CNC(=C[N+](=O)[O-])NCCSCc1ccc(CN(C)C)o1 [Ranitidine, reference compound]",–,–,–,–,–,–,–,0.27,–
"O=c1[nH]c(NCc2ccc(Cl)c(Cl)c2)nc2ncn(CCCCCI)c12 [Compound 13, 7-(5-Iodopentyl)-2-(3,4-dichlorobenzylamino)-6-oxopurine]",2.5,1.4,3.7,2.5,3.7,–,1.25,–,Ki (E.c. pol IIIE): 47000 nM; Ki (B.s. pol IIIE): 88 nM; Ki (B.s. pol IIIC): 70 nM; MIC [1]: 2.5 µg/mL
"CC(=O)OCCCCCn1cnc2nc(NCc3ccc(Cl)c(Cl)c3)[nH]c(=O)c21 [Compound 11, 7-(5-Acetoxypentyl)-2-(3,4-dichlorobenzylamino)-6-oxopurine]",1.25,–,–,1.25,2.5,52,–,–,–
"COCCCCn1cnc2cc(NCc3ccc(Cl)c(Cl)c3)[nH]c(=O)c21 [Compound 2, 2-(3,4-Dichlorobenzylamino)-6-oxo-7-(4-methoxybutyl)-3-deazapurine]",5,0.625,3.75,5,–,–,–,–,Ki (E.c. pol IIIE): 56000 nM; Ki (B.s. pol IIIE): 370 nM; Ki (B.s. pol IIIC): 190 nM
"O=c1[nH]c(NCc2ccc(Cl)c(Cl)c2)nc2ncn(CCCCN3CCOCC3)c12 [Compound 10, 7-[4-(N-Morpholinyl)butyl]-2-(3,4-dichlorobenzylamino)-6-oxopurine]",10,–,–,10,20,51,–,0.01,–
"CCc1cc(Nc2nc3ncn(CCCCCOC)c3c(=O)[nH]2)ccc1C [Compound 22, 7-(5-Methoxypentyl)-2-(3-ethyl-4-methylphenylamino)-6-oxopurine]",10,1.25,–,5,–,–,–,–,Ki (B.s. pol IIIE): 394000 nM; Ki (B.s. pol IIIC): 260 nM
"O=c1[nH]c(NCc2ccc(Cl)c(Cl)c2)cc2ncn(CCCCN3CCOCC3)c12 [Compound 4, 2-(3,4-Dichlorobenzylamino)-6-oxo-7-(4-morpholinylbutyl)-3-deazapurine]",–,–,–,–,–,94,–,–,"MIC, E. fecium (Enterococcus fecium): 15 µg/mL; MIC, B.s. (Bacillus subtilis): 7.5 µg/mL; MIC, S.a. (Smith) (S.a. (Smith)): 10 µg/mL; MIC, E. fecalis (Enterococcus fecalis): 20 µg/mL; MIC, S.a. (Staphylococcus aureus): 20 µg/mL; Ki (B.s. pol IIIE; [3]): 200 nM; MIC, VRE [1]: 10 µg/mL; MIC, MRSA (B42876) (MRSA (B42876)): 20 µg/mL"
"CCc1cc(Nc2cc3ncn(CCCCN4CCOCC4)c3c(=O)[nH]2)ccc1C [Compound 16, 2-(3-Ethyl-4-methylphenylamino)-6-oxo-7-(4-morpholinylbutyl)-3-deazapurine]",–,–,–,–,–,1100,–,–,"MIC, E. fecium (Enterococcus fecium): 20 µg/mL; MIC, B.s. (Bacillus subtilis): 10 µg/mL; Ki, E.c. pol IIIE (E.c. pol IIIE; [4]): inact; MIC, S.a. (Smith) (S.a. (Smith)): 40 µg/mL; MIC, E. fecalis (Enterococcus fecalis): >80 µg/mL; MIC, S.a. (Staphylococcus aureus): 40 µg/mL; Ki, B.s. pol IIIE (B.s. pol IIIE; [4]): inact; MIC, VRE [1]: >80 µg/mL; MIC, MRSA (B42876) (MRSA (B42876)): 30 µg/mL"
"CCc1cc(Nc2nc3ncn(CCCCCO)c3c(=O)[nH]2)ccc1C [Compound 20, 7-(5-Hydroxypentyl)-2-(3-ethyl-4-methylphenylamino)-6-oxopurine]",10,–,–,10,–,280,20,0.62,–
"CCc1cc(Nc2nc3ncn(CCCCCOC(C)=O)c3c(=O)[nH]2)ccc1C [Compound 19, 7-(5-Acetoxypentyl)-2-(3-ethyl-4-methylphenylamino)-6-oxopurine]",–,–,–,–,–,–,–,0.58,–
